Results: patent US20180334447A1, “2,3,4,5-TETRAHYDROPYRIDIN-6-AMINE DERIVATIVES” (JANSSEN PHARMACEUTICA NV, priority 2015, published 2018)

Key:
[1] = system: Abeta 1-42 produced and secreted into the medium of human neuroblastoma SKNBE2 cells; assay: Cellular αLisa assay in SKNBE2 cells, Abeta 42; type: cell-based; conditions: SKNBE2 cells expressing hAPP695, incubated for 18 hours; for IC50: Homo sapiens, SKNBE2, 18 h, read-out: Cellular αLisa assay in SKNBE2 cells Abeta 42 pIC50 (converted)
Protocol: In two αLisa assays the levels of Abeta 1-42 produced and secreted into the medium of human neuroblastoma SKNBE2 cells are quantified. The assay is based on the human neuroblastoma SKNBE2 expressing the wild type Amyloid Precursor Protein (hAPP695). The compounds are diluted and added to these cells, incubated for 18 hours and then measurements of Abeta 1-42 are taken. Abeta 1-42 are measured by sandwich αLisa. αLisa is a sandwich assay using biotinylated antibody AbN/25 attached to streptavidin coated beads and antibody cAb42/26 conjugated acceptor beads for the detection of Abeta 1-42 respectively. In the presence of Abeta 1-42, the beads come into close proximity. The excitation of the donor beads provokes the release of singlet oxygen molecules that trigger a cascade of energy transfer in the acceptor beads, resulting in light emission. Light emission is measured after 1 hour incubation (excitation at […] and emission at 615 nm).
(§1) A best-fit curve is fitted by a minimum sum of squares method to the plot of % Controlmin versus compound concentration. From this an IC50 value (inhibitory concentration causing 50% inhibition of activity) can be obtained.

[2] = system: Abetatotal in human neuroblastoma SKNBE2 cells; assay: Cellular αLisa assay in SKNBE2 cells, Abetatotal; type: cell-based; conditions: SKNBE2 cells expressing hAPP695, incubated for 18 hours; for IC50: Homo sapiens, SKNBE2, 18 h, read-out: Cellular αLisa assay in SKNBE2 cells Abetatotal pIC50 (converted)
[3] = system: Abeta 1-37, Abeta 1-38, Abeta 1-40 and Abeta 1-42 in CSF; assay: Pharmacology in the Beagle dog: beta-amyloid profile in cerebrospinal fluid (CSF) after a single dose; type: in vivo; conditions: for inhibition in vivo at 0.31 mg/kg / inhibition in vivo at 0.16 mg/kg / inhibition in vivo at 1.25 mg/kg / inhibition in vivo at 0.08 mg/kg / inhibition in vivo at 0.63 mg/kg: Canis lupus familiaris, 8 h post dosing, read-out: % Decrease in Abeta 1-42 at 8 h post dosing compared to own baseline
Protocol: Test compounds were tested to evaluate the effect on the beta-amyloid profile in cerebrospinal fluid (CSF) of dogs after a single dose, in combination with pharmacokinetic (PK) follow up and limited safety evaluation.
For each of compound 20, 21, 22 or 41, four beagle dogs (2 males, 2 females) were dosed with vehicle (1 ml/kg of an aqueous solution of 20% cyclodextrin) and 12 beagle dogs (2 males and 2 females per dosage group) were dosed with test compounds as follows:
In the case of compounds 39, 33 and 31, two beagle dogs (1 male, 1 female) were dosed with vehicle (1 ml/kg of an aqueous solution of 20% cyclodextrin) and 4 beagle dogs (2 males and 2 females) were dosed with test compound […] (0.31 mg/kg in 0.31 mg/ml of an aqueous 20% cyclodextrin solution) on an empty stomach.
Eight hours after dosing the animals got access to their regular meal for 30 minutes. Blood was taken for PK follow up (0.5, 1, 2, 4, 8, 25 and 49 hours) and serum samples for biochemistry were taken before and at 8 and 25 h after dosing. The CSF samples were used for measurement of Abeta 1-37, Abeta 1-38, Abeta 1-40 and Abeta 1-42.

[4] = target: T1, recombinant BACE1 protein (Homo sapiens, UniProt P56817); assay: BACE1 biochemical FRET based assay - Method 1; conditions: BACE1, 120 minutes at room temperature, pH 5.0; read-out: Biochemical FRET based assay - Method 1 pIC50 (converted)
T1 construct: recombinant BACE1 protein in a final concentration of 1 μg/ml
T1 sequence (P56817 46-501): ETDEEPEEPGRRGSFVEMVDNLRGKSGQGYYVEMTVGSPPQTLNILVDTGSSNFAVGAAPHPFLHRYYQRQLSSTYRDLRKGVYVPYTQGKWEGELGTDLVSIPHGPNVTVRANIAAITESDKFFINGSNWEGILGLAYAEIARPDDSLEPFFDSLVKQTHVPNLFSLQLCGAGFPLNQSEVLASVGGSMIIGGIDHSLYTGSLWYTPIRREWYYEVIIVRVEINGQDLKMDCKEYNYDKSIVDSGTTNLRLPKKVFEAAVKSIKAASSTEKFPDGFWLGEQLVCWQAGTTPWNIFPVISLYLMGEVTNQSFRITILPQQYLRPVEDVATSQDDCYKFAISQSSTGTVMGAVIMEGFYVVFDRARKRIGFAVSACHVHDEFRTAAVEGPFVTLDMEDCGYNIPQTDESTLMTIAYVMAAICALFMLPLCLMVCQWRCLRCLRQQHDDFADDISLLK
Source text: (§2) This assay is a Fluorescence Resonance Energy Transfer Assay (FRET) based assay. The substrate for this assay is an APP derived 13 amino acids peptide that contains the ‘Swedish’ Lys-Met/Asn-Leu mutation of the amyloid precursor protein (APP) beta-secretase cleavage site. This substrate also contains two fluorophores: (7-methoxycoumarin-4-yl) acetic acid (Mca) is a fluorescent donor with excitation wavelength at 320 nm and emission at 405 nm and 2,4-Dinitrophenyl (Dnp) is a proprietary quencher acceptor. […] Upon cleavage by BACE1, the fluorophore Mca is separated from the quenching group Dnp, restoring the full fluorescence yield of the donor. The increase in fluorescence is linearly related to the rate of proteolysis.
Briefly in a 384-well format recombinant BACE1 protein in a final concentration of 1 μg/ml is incubated for 120 minutes at room temperature with 10 μm substrate in incubation buffer (40 mM Citrate buffer pH 5.0, 0.04% PEG, 4% DMSO) in the absence or presence of compound. Next the amount of proteolysis is directly measured by fluorescence measurement at T=0 and T=120 (excitation at 320 nm and emission at 405 nm). Results are expressed in RFU (Relative Fluorescence Units), as difference between T120 and T0.
as §1

[5] = target: T2, recombinant BACE2 protein (Homo sapiens, UniProt Q9Y5Z0); assay: BACE2 biochemical FRET based assay; conditions: BACE2, 450 minutes at room temperature, pH 5.0; read-out: Biochemical FRET based assay pIC50 (converted)
T2 construct: recombinant BACE2 protein in a final concentration of 0.4 μg/ml
T2 sequence (Q9Y5Z0 63-518): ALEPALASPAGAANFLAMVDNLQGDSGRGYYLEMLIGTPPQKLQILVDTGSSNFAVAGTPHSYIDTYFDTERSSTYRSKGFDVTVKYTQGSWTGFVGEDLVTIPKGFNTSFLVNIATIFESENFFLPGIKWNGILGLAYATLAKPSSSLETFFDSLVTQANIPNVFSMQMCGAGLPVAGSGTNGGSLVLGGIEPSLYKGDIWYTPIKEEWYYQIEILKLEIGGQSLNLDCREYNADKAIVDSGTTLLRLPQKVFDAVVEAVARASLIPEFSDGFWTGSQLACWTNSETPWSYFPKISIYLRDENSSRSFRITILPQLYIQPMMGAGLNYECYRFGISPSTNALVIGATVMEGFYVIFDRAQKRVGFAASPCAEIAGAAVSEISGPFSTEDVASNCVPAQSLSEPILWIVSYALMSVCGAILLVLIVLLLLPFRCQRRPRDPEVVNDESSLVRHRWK
Source text: as §2, with “assay” for “assay is an APP derived 13 amino acids peptide that”, “the beta-secretase,” for “BACE1,”
Briefly in a 384-well format recombinant BACE2 protein in a final concentration of 0.4 μg/ml is incubated for 450 minutes at room temperature with 10 μM substrate in incubation buffer (50 mM Citrate buffer pH 5.0, 0.05% PEG, no DMSO) in the absence or presence of compound. Next the amount of proteolysis is directly measured by fluorescence measurement at T=0 and T=450 (excitation at 320 nm and emission at 405 nm). Results are expressed in RFU (Relative Fluorescence Units), as difference between T450 and T0.
as §1

[6] = single dose 0.31 mg/kg, 25 h post dosing (b)

Structure (SMILES) | IC50 [1] [nM] | IC50 [2] [nM] | IC50 [4] [nM] | IC50 [5] [nM] | inhibition in vivo at 0.31 mg/kg ([3]; single dose 0.31 mg/kg) [%] | other results
CC1(S(C)(=O)=O)CCC(CF)(c2cc(NC(=O)c3cnc(OC(F)F)cn3)ccc2F)N=C1N (centres unmarked) [Compound 32] | 0.398 | 0.309 | 1.05 | 11.5 | 76 | 
CCS(=O)(=O)C1(C)CCC(CF)(c2cc(NC(=O)c3ccc(F)cn3)ccc2F)N=C1N (centres unmarked) [Compound 31] | 1.91 | 1.78 | 1.7 | 2.63 | 31 | 
CCC1(S(=O)(=O)CC)CCC(CF)(c2cc(NC(=O)c3ccc(F)cn3)ccc2F)N=C1N (centres unmarked) [Compound 30] | 15.8 | 13.5 | 15.8 | 24.5 |  | 
COc1cnc(C(=O)Nc2ccc(F)c([C@@]3(C)N=C(N)[C@@](C)(C#N)C[C@]3(C)F)c2)cn1 [Compound 28] | 550 | 501 | 1150 | > 10000 |  | 
C[C@@]1(c2cc(NC(=O)c3ccc(F)cn3)ccc2F)CC[C@@](CF)(S(C)(=O)=O)C(N)=N1 [Compound 26] | 5.25 | 4.07 | 14.8 | 11 |  | 
CC1(S(C)(=O)=O)CCC(CF)(c2cc(NC(=O)c3ccc(C#N)cn3)ccc2F)N=C1N (centres unmarked) [Compound 22] | 1.15 |  | 1.12 | 5.25 | 78 | inhibition in vivo at 0.08 mg/kg ([3]; single dose 0.08 mg/kg): 50%; % Decrease in Abeta 1-42 at 24 h^(a) or 25 h^(b) post dosing compared to own baseline ([3]; single dose 0.08 mg/kg, 24 h post dosing (a)): 54^(a) %; % Decrease in Abeta 1-42 at 49 h post dosing compared to own baseline ([3]; single dose 0.31 mg/kg): 71%
COc1cnc(C(=O)Nc2ccc(F)c([C@@]3(C)N=C(N)[C@](C)(C#N)C[C@]3(C)F)c2)cn1 [Compound 27] | 17.4 | 16.2 | 41.7 | 389 |  | 
CC[C@]1(S(C)(=O)=O)CC[C@@](CF)(c2cc(NC(=O)c3ccc(F)cn3)ccc2F)N=C1N [Compound 29a] | 851 | 182 | 871 | 776 |  | 
C[C@@]1(S(C)(=O)=O)CC[C@@](CF)(c2cc(NC(=O)c3ccc(F)cn3)ccc2F)N=C1N [Compound 20] | 2.51 | 2.57 | 3.02 | 3.02 |  | inhibition in vivo at 0.16 mg/kg ([3]; single dose 0.16 mg/kg): 54%; inhibition in vivo at 0.63 mg/kg ([3]; single dose 0.63 mg/kg): 75%; inhibition in vivo at 1.25 mg/kg ([3]; single dose 1.25 mg/kg): 77%; % Decrease in Abeta 1-42 at 24 h^(a) or 25 h^(b) post dosing compared to own baseline ([3]; single dose 0.16 mg/kg, 24 h post dosing (a)): 44^(a) %; % Decrease in Abeta 1-42 at 49 h post dosing compared to own baseline ([3]; single dose 0.63 mg/kg): 29%; % Decrease in Abeta 1-42 at 49 h post dosing compared to own baseline ([3]; single dose 1.25 mg/kg): 65%
Cc1cc(C#N)cnc1C(=O)Nc1ccc(F)c([C@]2(CF)CC[C@@](C)(S(C)(=O)=O)C(N)=N2)c1 [Compound 21] | 0.813 |  | 1.38 | 5.01 | 78 | inhibition in vivo at 0.08 mg/kg ([3]; single dose 0.08 mg/kg): 49%; inhibition in vivo at 0.63 mg/kg ([3]; single dose 0.63 mg/kg): 70%; % Decrease in Abeta 1-42 at 24 h^(a) or 25 h^(b) post dosing compared to own baseline [3, 6]: 69^(b) %

Further lines, with some results ahead:

IC50 [1] [nM] | IC50 [2] [nM] | IC50 [4] [nM] | IC50 [5] [nM] | Structure (SMILES) | inhibition in vivo at 0.31 mg/kg ([3]; single dose 0.31 mg/kg) [%] | other results
1.38 | 2.14 | 1.29 | 25.1 | CC1(S(C)(=O)=O)CCC(CF)(c2cc(NC(=O)c3cnc(OCC(F)(F)F)cn3)ccc2F)N=C1N (centres unmarked) [Compound 39] | 53 | % Decrease in Abeta 1-42 at 24 h^(a) or 25 h^(b) post dosing compared to own baseline [3, 6]: 44^(b) %
3.09 | 2.82 | 3.72 | 44.7 | CC1(S(C)(=O)=O)CCC(CF)(c2cc(NC(=O)c3cnc(OCC(F)F)cn3)ccc2F)N=C1N (centres unmarked) [Compound 35] |  | 
 |  | 3630 | 4270 | CC(C)S(=O)(=O)C1(C)CCC(CF)(c2cc(NC(=O)c3ccc(F)cn3)ccc2F)N=C1N (single isomer, unassigned) [Compound 34] |  | Cellular αLisa assay in SKNBE2 cells Abeta 42 pIC50 [1]: 5.56; Cellular αLisa assay in SKNBE2 cells Abetatotal pIC50 [2]: 5.72
4.37 | 4.37 | 4.27 | 28.2 | CC1(S(C)(=O)=O)CCC(CF)(c2cc(NC(=O)c3ncc(OC(F)F)cn3)ccc2F)N=C1N (centres unmarked) [Compound 36] |  | 
1.62 |  | 2.19 | 16.6 | C[C@@]1(S(C)(=O)=O)CC[C@@](CF)(c2cc(NC(=O)c3cnc(OCF)cn3)ccc2F)N=C1N [Compound 41] | 78 | inhibition in vivo at 0.16 mg/kg ([3]; single dose 0.16 mg/kg): 71%; inhibition in vivo at 1.25 mg/kg ([3]; single dose 1.25 mg/kg): 89%; % Decrease in Abeta 1-42 at 24 h^(a) or 25 h^(b) post dosing compared to own baseline ([3]; single dose 0.16 mg/kg, 25 h post dosing (b)): 26^(b) %; % Decrease in Abeta 1-42 at 24 h^(a) or 25 h^(b) post dosing compared to own baseline [3, 6]: 49^(b) %; % Decrease in Abeta 1-42 at 49 h post dosing compared to own baseline ([3]; single dose 1.25 mg/kg): 41%
 |  | 4.27 | 3.55 | CC(C)S(=O)(=O)C1(C)CCC(CF)(c2cc(NC(=O)c3ccc(F)cn3)ccc2F)N=C1N (single isomer, unassigned) [Compound 33] | 34 | Cellular αLisa assay in SKNBE2 cells Abeta 42 pIC50 [1]: 8.32; Cellular αLisa assay in SKNBE2 cells Abetatotal pIC50 [2]: 8.37
